In patent publication US4230850A, “3-Substituted-4-aminoalkoxy-5,6-condensed ring-2-pyranones” (LIPHA, Lyonnaise Industrielle Pharmaceutique, priority 1976, dated 1980):

Legend:
[1] = system: intraventricular coronary artery; assay: rate of flow of the intraventricular coronary artery, electromagnetic flow meter, anaesthetised dog; type: in vivo; conditions: intravenous, Dipyridamol = 100
Method: The rate of flow of the intraventricular coronary artery was measured with an electromagnetic flow meter on the anaesthetised dog.
The different test compounds, administered intravenously, have caused considerable increases in the rate of flow, as reported in Table I below (the standard used for comparison being 2,6-di-[di-(2-hydroxyethyl)amino]-4,8-dipiperidinopyrimido-[5,4-d]-pyrimidine, which has the B.P.C. approved name of "Dipyridamole").

[2] = system: citric acid aerosol cough; assay: citric acid aerosol test on the guinea pig (anti-tussive); type: in vivo; conditions: administered in equitoxic dose per os
Description: The compounds of the invention were compared with codeine.

vertebral rate of flow = vertebral rate of flow in the anaesthetised dog; type: in vivo; conditions: papaverine = 1
Method: Likewise, the vasodilation produced by the compounds of the invention is measured by means of the vertebral rate of flow in the anaesthetised dog.

[3] = system: mice placed in a confined atmosphere; assay: protection against anoxia: survival time of mice placed in a confined atmosphere; type: in vivo, mouse; conditions: oral
Description: As well as the vasodilatory activity, a strong protective action against the effects of anoxia has been found for the compounds of the invention. By way of example, Table VI indicates as a percentage the increase in the survival time caused by oral administration of certain compounds to mice placed in a confined atmosphere.

[4] = system: rats made hypertensive by the Goldblatt technique; assay: decrease in hypertension in rats made hypertensive by the Goldblatt technique; type: in vivo, rat; conditions: oral, (HS) or (S) given after value, not defined
Method: Anti-hypertensive (hypotensive) activity has been found with the compounds of the invention. With rats made hypertensive by the Goldblatt technique (M. GOLDBLATT, J. LUNCH, R. F. MANZAL and W. W. SUMMERVILLE, J. of Exper. Med. 1934, 59, 347-379), decreases in hypertension were recorded after oral administration of the test compound. By way of example, Table III gives the decreases obtained with some of the compounds.

[5] = system: phosphodiesterase of cyclic AMP; assay: inhibition of the phosphodiesterase of cyclic AMP in vitro; type: biochemical; set-up: unit not given beside the values; conditions: measured in vitro; unit not given
Description: The compounds of the invention are capable of inhibiting the phosphodiesterase of cyclic AMP (adenosine monophosphate).
Table II gives the inhibition indices (ID50), measured in vitro, for some of the compounds of the invention.

femoral artery = femoral artery rate of flow, electromagnetic flow meter, anaesthetised dog; type: in vivo; conditions: dog anaesthetised with Pentobarbital, papaverine = 1
Description: The coefficients given in Table IV are expressed relatively to papaverine, which is given the coefficient 1, for the femoral dilation which it causes under similar conditions.

Compound: Cc1ccc2oc(=O)c(-c3ccccc3)c(OCCCN3CCOCC3)c2c1
- Coefficient related to Dipyridamol [1]: 100

Compound: COc1ccc2c3c1O[C@H]1[C@@H](O)C=C[C@H]4[C@@H](C2)N(C)CC[C@@]341 [Codeine, reference compound]
- % inhibition on average of number of coughs [2]: 55%

Compound: OCCN(CCO)c1nc(N2CCCCC2)c2nc(N(CCO)CCO)nc(N3CCCCC3)c2n1 [Dipyridamol, 2,6-di-[di-(2-hydroxyethyl)amino]-4,8-dipiperidinopyrimido-[5,4-d]-pyrimidine, reference compound]
- Coefficient related to Dipyridamol [1]: 100

Compound: O=c1oc2ccccc2c(OCCN2CCOCC2)c1-c1ccccc1 [Example 2, 4-(2'-Morpholinoethoxy)-3-phenyl-coumarin]
- Coefficient/Papaverine (vertebral rate of flow) (vertebral rate of flow): 2
- Average % increase in survival time [3]: +41%
- Decrease in hypertension in mm.Hg., 3 to 5 hours after administration [4]: -34 mm.Hg.
- Coefficient related to Dipyridamol [1]: 150

Compound: O=c1oc2ccccc2c(OCCN2CCCCC2)c1-c1ccccc1 [Example 3, 4-(2'-Piperidinoethoxy)-3-phenyl-coumarin]
- ID50 (inhibition indices) [5]: 150

Compound: CN(C)CCCOc1c(-c2ccccc2)c(=O)oc2ccccc12 [Example 4, 4-(3'-Dimethylaminopropoxy)-3-phenyl-coumarin]
- ID50 (inhibition indices) [5]: 150
- Coefficient/Papaverine (vertebral rate of flow) (vertebral rate of flow): 6
- Coefficient/Papaverine (femoral dilation) (femoral artery): 60

Compound: CCCCc1c(OCCN2CCOCC2)c2c(OCCN3CCOCC3)cc(OCCN3CCOCC3)cc2oc1=O [Example 5, 3-Butyl-4,5,7-tri(2'-morpholinoethoxy)-coumarin]
- Coefficient/Papaverine (vertebral rate of flow) (vertebral rate of flow): 2

Compound: O=c1oc2ccccc2c(OCCN2CCOCC2)c1-c1ccc(Br)cc1 [Example 7, 3-(4'-Bromophenyl)-4-(2"-morpholinoethoxy)-coumarin]
- Average % increase in survival time [3]: +50%

Compound: Cc1c(OCCN2CCOCC2)c2ccccc2oc1=O [Example 9, 3-Methyl-4-(2'-morpholinoethoxy)-coumarin]
- Average % increase in survival time [3]: +30%

Compound: O=c1oc2ccccc2c(OCCN2CCOCC2)c1-c1ccc(F)cc1 [Example 11, 3-(4'-Fluorophenyl)-4-(2"-morpholinoethoxy)-coumarin]
- Average % increase in survival time [3]: +45%

Compound: Cc1ccc2oc(=O)c(-c3ccccc3)c(OCCN3CCOCC3)c2c1 [Example 12, 6-Methyl-4-(2'-morpholinoethoxy)-3-phenyl-coumarin]
- Coefficient related to Dipyridamol [1]: 150

Compound: O=c1oc2c(c(OCCN3CCOCC3)c1-c1ccccc1)CCCC2 [Example 14, 4-(2'-Morpholinoethoxy)-3-phenyl-5,6,7,8-tetrahydro-coumarin]
- Average % increase in survival time [3]: +50%

Compound: O=c1oc2ccccc2c(OCCCN2CCOCC2)c1-c1ccccc1 [Example 16, 4-(3'-Morpholinopropoxy)-3-phenyl-coumarin]
- Coefficient related to Dipyridamol [1]: 250

Compound: CC(COc1c(-c2ccccc2)c(=O)oc2ccccc12)CN1CCOCC1 (stereo not drawn) [Example 19, 4-(3'-Morpholino-2'-methylpropoxy)-3-phenyl-coumarin]
- ID50 (inhibition indices) [5]: 600
- Coefficient/Papaverine (vertebral rate of flow) (vertebral rate of flow): 3
- Average % increase in survival time [3]: +46%
- Decrease in hypertension in mm.Hg., 3 to 5 hours after administration [4]: -18 mm.Hg.

Compound: COc1ccc2c(OCCN3CCOCC3)c(-c3ccccc3)c(=O)oc2c1 [Example 20, 7-Methoxy-4-(2'-morpholinoethoxy)-3-phenyl-coumarin]
- Coefficient/Papaverine (femoral dilation) (femoral artery): 12

Compound: COc1cccc2c(OCCN3CCOCC3)c(-c3ccccc3)c(=O)oc12 [Example 21, 8-Methoxy-4-(2'-morpholinoethoxy)-3-phenyl-coumarin]
- Coefficient/Papaverine (vertebral rate of flow) (vertebral rate of flow): 5
- Coefficient/Papaverine (femoral dilation) (femoral artery): 13

Compound: O=c1oc2cccc(OCCN3CCOCC3)c2c(OCCN2CCOCC2)c1-c1ccccc1 [Example 23, Bis-4,5-(2'-morpholinoethoxy)-3-phenyl-coumarin]
- Coefficient/Papaverine (vertebral rate of flow) (vertebral rate of flow): 4.5
- Coefficient/Papaverine (femoral dilation) (femoral artery): 6
- Coefficient related to Dipyridamol [1]: 300

Compound: CN1CCN(CCCOc2c(-c3ccccc3)c(=O)oc3ccccc23)CC1 [Example 27, 4-[3-(4"-Methyl-1"-piperazinyl)-propoxy]-3-phenyl-coumarin]
- Coefficient/Papaverine (vertebral rate of flow) (vertebral rate of flow): 3

Compound: O=c1oc2cccc(O)c2c(OCCN2CCOCC2)c1-c1ccccc1 [Example 30, 4-(2'-Morpholinoethoxy)-5-hydroxy-3-phenyl-coumarin]
- % inhibition on average of number of coughs [2]: 47%
- Average % increase in survival time [3]: +65%

Compound: O=c1oc2c(O)cccc2c(OCCN2CCOCC2)c1-c1ccccc1 [Example 35, 8-Hydroxy-4-(2'-morpholinoethoxy)-3-phenyl-coumarin]
- Coefficient/Papaverine (vertebral rate of flow) (vertebral rate of flow): 10
- Decrease in hypertension in mm.Hg., 3 to 5 hours after administration [4]: -44 mm.Hg.
- Coefficient/Papaverine (femoral dilation) (femoral artery): 8

Compound: O=c1oc2ccccc2c(OCC(O)CN2CCCCC2)c1-c1ccccc1 (stereo not drawn) [Example 37, 4-(3'-Piperidino-2'-hydroxypropoxy)-3-phenyl-coumarin]
- Coefficient/Papaverine (vertebral rate of flow) (vertebral rate of flow): 9
- Coefficient/Papaverine (femoral dilation) (femoral artery): 12

Compound: O=c1oc2c(c(OCCN3CCOCC3)c1-c1ccccc1)CCc1ccccc1-2 [Example 44, 4-(2'-Morpholinoethoxy)-3-phenyl-5,6-dihydro-[h]-benzocoumarin]
- % inhibition on average of number of coughs [2]: 48%

Compound: O=c1oc2c(c(OCCN3CCOCC3)c1-c1ccccc1)-c1ccccc1C2c1ccccc1 (stereo not drawn) [Example 45, 4-(2'-Morpholinoethoxy)-3,9-diphenyl-[2-1-b]-indeno-[2H]-pyran-2-one]
- Decrease in hypertension in mm.Hg., 3 to 5 hours after administration [4]: -49 mm.Hg.
- Coefficient/Papaverine (femoral dilation) (femoral artery): 60

Compound: CC(COc1c2c(oc(=O)c1-c1ccccc1)CCCC2)CN1CCOCC1 (stereo not drawn) [Example 46, 4-(3'-Morpholino-2'-methylpropoxy)-3-phenyl-5,6,7,8-tetrahydrocoumarin]
- ID50 (inhibition indices) [5]: 600
- Average % increase in survival time [3]: +40%

Compound: O=c1oc2c(c(OCCCN3CCOCC3)c1-c1ccccc1)CCCC2 [Example 47, 4-(3'-Morpholinopropoxy)-3-phenyl-5,6,7,8-tetrahydrocoumarin]
- ID50 (inhibition indices) [5]: 200

Compound: CC(COc1c2c(oc(=O)c1-c1ccccc1)CCCCCC2)CN1CCOCC1 (stereo not drawn) [Example 51, 4-(3'-Morpholino-2'-methylpropoxy)-3-phenyl[1-2-b]-cyclooctano-(2H)-pyran-2-one]
- % inhibition on average of number of coughs [2]: 60%

Compound: COc1ccc(Cc2nccc3cc(OC)c(OC)cc23)cc1OC [Papaverine, reference compound]
- Coefficient/Papaverine (vertebral rate of flow) (vertebral rate of flow): 1
- Coefficient/Papaverine (femoral dilation) (femoral artery): 1

Compound: O=c1oc2c(c(OCCN3CCOCC3)c1-c1ccccc1)CCCC2 [drawing 27]
- Coefficient/Papaverine (femoral dilation) (femoral artery): 12

Compound: O=c1oc2c(c(OCCN3CCOCC3)c1-c1ccccc1)CCCC2 [drawing 39]
- Coefficient/Papaverine (vertebral rate of flow) (vertebral rate of flow): 5.5

Compound: O=c1oc2c(c(OCCN3CCOCC3)c1-c1ccccc1)CCCC2 [drawing 49]
- % inhibition on average of number of coughs [2]: 85%
